Source: patent US20240269139A1, “COMPOUNDS FOR TARGETED PROTEIN DEGRADATION OF KINASES” (DANA-FARBER CANCER INSTITUTE, INC., priority 2020, published 2024)
Read-outs that look alike come from different tables or passages of the source.

How the values were obtained:
Type in all cases: cell-based
[1] = biological target: protein kinases (human kinome) (Homo sapiens, UniProt P19525); conditions: for logFC: EIF2AK2 (P19525)
[2] = biological target: protein kinases (human kinome) (Homo sapiens, UniProt O43353); conditions: for logFC: RIPK2 (O43353-1)
[3] = biological target: protein kinases (human kinome) (Homo sapiens, UniProt Q5S007); conditions: for logFC: LRRK2 (Q5S007)
[4] = biological target: T1, protein kinases (human kinome) (Homo sapiens, UniProt P21709); conditions: for logFC of EPHA1 (P21709): Experiment wp114; for logFC EPHA1: protein EPHA1 (P21709), experiment wp114, direction of change down
T1 sequence (P21709 26-976): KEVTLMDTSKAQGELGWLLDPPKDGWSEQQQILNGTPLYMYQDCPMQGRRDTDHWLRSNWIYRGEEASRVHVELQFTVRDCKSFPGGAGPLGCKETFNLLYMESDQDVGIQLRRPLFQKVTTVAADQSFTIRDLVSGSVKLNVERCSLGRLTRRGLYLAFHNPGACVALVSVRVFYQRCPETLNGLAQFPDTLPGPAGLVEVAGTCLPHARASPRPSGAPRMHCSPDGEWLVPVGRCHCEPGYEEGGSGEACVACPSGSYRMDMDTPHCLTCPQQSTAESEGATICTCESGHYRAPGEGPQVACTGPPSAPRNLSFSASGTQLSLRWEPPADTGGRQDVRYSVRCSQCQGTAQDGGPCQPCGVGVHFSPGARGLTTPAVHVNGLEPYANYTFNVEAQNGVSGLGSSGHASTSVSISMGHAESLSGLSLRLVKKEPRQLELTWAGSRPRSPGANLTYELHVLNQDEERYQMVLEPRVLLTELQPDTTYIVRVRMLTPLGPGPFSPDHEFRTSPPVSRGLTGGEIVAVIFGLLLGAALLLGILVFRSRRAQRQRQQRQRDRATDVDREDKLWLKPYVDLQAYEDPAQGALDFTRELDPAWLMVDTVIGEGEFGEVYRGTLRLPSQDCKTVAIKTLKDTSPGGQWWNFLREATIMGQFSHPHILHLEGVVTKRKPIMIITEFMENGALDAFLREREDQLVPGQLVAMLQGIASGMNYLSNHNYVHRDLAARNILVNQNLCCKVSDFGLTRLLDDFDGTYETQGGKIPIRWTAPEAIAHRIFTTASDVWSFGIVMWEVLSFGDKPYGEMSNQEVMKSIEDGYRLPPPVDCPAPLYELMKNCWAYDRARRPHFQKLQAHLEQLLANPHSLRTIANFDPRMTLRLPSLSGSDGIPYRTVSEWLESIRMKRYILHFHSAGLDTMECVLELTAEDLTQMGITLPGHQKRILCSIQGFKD

[5] = biological target: T2, protein kinases (human kinome) (Homo sapiens, UniProt Q9NWZ3); conditions: for logFC: IRAK4 (Q9NWZ3-1)
T2 sequence (Q9NWZ3 1-460): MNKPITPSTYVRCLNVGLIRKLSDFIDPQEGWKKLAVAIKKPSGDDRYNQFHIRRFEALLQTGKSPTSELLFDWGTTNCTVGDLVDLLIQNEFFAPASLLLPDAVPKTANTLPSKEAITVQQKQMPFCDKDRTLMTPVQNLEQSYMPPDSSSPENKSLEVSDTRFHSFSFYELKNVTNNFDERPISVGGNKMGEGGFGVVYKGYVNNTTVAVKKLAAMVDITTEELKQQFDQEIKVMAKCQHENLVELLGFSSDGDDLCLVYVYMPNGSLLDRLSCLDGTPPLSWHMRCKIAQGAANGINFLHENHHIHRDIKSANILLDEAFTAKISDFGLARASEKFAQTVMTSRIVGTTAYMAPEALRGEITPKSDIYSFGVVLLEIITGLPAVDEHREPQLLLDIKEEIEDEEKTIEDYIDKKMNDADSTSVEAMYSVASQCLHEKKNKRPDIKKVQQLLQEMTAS

[6] = biological target: protein kinases (human kinome) (Homo sapiens, UniProt P31751); conditions: AKT2 (P31751)
[7] = biological target: protein kinases (human kinome) (Homo sapiens, UniProt P48730); conditions: for logFC CSNK1D: Accession P48730-1, direction down
[8] = biological target: protein kinases (human kinome) (Homo sapiens, UniProt Q5TCX8); conditions: for logFC: MAP3K21 (Q5TCX8); for logFC MAP3K21 (Q5TCX8): direction of change down

Sequence of protein kinases (human kinome) (Homo sapiens, UniProt P19525) (P19525 whole entry): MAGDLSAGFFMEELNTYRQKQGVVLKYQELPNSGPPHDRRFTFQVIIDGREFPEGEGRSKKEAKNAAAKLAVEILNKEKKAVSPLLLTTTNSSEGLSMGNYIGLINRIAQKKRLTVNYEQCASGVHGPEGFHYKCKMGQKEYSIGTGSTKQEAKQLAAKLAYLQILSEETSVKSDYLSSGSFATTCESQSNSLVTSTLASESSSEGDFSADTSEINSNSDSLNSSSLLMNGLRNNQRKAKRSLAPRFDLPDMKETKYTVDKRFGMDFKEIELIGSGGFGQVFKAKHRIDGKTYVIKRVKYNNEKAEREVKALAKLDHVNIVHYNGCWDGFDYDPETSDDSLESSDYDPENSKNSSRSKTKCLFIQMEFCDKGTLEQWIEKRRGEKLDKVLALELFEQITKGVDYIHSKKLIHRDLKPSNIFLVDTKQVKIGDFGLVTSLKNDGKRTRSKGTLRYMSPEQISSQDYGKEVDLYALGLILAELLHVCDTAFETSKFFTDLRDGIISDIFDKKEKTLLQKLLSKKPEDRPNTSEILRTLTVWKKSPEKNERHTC
Sequence of protein kinases (human kinome) (Homo sapiens, UniProt P31751) (P31751 whole entry): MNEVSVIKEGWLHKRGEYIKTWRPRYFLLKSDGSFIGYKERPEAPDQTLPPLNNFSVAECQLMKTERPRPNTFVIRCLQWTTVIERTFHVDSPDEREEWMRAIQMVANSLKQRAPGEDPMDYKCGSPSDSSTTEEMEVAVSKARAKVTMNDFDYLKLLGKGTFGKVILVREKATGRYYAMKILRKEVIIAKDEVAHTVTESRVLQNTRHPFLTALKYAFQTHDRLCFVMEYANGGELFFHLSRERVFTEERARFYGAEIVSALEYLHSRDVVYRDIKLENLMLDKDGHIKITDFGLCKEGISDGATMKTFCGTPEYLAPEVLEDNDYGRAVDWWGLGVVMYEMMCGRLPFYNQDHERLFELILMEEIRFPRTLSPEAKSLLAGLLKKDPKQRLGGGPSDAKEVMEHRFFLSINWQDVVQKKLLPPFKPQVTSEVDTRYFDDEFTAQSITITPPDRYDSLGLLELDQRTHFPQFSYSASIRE
Sequence of protein kinases (human kinome) (Homo sapiens, UniProt O43353) (O43353 whole entry): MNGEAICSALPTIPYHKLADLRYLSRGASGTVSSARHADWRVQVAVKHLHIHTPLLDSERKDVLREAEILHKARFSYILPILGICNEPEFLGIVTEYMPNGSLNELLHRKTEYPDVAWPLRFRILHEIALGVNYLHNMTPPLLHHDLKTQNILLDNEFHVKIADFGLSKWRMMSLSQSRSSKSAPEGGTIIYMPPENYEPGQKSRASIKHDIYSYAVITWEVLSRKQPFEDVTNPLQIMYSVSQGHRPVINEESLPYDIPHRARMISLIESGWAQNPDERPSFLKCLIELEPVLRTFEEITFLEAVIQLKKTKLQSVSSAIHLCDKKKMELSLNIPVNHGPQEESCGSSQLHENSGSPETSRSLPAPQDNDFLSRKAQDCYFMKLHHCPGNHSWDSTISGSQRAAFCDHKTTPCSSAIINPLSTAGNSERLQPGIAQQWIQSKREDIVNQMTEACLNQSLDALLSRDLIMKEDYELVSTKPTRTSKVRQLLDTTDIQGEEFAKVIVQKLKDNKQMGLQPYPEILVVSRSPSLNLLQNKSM
Sequence of protein kinases (human kinome) (Homo sapiens, UniProt Q5S007) (Q5S007 whole entry): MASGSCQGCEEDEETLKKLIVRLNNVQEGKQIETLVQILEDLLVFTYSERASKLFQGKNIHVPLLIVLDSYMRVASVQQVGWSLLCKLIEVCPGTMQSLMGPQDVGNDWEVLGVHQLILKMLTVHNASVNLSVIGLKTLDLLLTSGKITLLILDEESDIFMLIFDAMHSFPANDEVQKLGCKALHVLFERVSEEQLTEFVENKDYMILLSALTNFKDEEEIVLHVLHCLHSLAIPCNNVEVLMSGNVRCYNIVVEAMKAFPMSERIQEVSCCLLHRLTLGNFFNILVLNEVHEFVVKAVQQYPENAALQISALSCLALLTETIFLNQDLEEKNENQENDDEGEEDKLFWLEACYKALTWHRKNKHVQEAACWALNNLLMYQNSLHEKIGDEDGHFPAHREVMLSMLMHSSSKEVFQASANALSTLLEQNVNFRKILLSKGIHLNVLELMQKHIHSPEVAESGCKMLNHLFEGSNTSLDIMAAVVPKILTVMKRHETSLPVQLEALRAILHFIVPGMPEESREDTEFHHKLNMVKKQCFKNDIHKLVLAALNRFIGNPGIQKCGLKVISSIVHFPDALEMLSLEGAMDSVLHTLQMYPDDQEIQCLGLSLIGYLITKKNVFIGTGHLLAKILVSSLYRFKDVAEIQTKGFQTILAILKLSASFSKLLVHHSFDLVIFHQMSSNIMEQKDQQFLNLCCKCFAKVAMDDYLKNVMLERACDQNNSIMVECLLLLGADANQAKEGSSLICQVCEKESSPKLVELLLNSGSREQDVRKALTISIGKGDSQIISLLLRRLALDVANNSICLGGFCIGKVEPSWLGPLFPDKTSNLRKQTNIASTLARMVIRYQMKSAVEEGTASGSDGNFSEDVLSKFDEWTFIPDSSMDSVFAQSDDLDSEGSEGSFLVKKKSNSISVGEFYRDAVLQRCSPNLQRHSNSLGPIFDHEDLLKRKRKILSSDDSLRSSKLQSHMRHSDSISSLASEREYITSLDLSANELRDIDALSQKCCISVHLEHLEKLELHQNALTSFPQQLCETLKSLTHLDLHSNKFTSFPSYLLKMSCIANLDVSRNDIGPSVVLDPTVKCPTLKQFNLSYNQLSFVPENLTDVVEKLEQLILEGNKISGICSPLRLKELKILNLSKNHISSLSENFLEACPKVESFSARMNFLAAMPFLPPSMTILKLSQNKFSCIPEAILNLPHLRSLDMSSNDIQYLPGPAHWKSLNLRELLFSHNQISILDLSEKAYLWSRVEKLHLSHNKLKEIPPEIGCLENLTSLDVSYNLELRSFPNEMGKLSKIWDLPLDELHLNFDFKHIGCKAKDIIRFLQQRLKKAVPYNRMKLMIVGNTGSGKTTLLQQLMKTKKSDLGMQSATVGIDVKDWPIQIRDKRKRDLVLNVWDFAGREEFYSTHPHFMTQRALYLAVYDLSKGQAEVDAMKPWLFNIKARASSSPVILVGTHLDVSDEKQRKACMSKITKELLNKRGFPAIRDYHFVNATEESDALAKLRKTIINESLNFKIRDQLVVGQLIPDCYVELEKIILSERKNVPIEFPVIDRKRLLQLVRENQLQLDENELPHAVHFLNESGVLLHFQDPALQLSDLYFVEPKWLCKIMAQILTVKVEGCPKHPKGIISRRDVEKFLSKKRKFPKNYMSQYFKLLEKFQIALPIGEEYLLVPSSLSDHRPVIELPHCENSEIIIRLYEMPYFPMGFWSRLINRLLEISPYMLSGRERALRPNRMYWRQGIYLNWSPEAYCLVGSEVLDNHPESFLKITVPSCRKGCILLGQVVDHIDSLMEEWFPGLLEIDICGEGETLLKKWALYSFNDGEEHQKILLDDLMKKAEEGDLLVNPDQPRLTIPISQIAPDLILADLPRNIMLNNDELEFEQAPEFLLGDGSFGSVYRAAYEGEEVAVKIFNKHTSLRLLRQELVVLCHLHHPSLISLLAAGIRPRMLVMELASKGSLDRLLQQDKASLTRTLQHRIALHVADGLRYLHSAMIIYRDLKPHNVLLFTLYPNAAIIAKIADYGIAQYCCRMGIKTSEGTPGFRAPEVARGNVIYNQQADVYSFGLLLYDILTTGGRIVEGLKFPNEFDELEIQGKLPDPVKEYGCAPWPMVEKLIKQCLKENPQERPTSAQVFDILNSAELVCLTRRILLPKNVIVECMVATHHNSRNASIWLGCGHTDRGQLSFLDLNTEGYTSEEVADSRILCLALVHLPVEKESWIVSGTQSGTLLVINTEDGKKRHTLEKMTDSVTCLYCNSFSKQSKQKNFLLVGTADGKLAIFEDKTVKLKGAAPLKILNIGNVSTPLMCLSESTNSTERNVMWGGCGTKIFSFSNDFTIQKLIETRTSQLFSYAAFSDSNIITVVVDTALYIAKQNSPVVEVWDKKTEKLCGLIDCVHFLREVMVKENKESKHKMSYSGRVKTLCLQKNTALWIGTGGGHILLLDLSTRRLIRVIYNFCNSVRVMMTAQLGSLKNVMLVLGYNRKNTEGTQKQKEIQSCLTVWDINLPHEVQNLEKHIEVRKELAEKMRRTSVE
Sequence of protein kinases (human kinome) (Homo sapiens, UniProt P48730) (P48730 whole entry): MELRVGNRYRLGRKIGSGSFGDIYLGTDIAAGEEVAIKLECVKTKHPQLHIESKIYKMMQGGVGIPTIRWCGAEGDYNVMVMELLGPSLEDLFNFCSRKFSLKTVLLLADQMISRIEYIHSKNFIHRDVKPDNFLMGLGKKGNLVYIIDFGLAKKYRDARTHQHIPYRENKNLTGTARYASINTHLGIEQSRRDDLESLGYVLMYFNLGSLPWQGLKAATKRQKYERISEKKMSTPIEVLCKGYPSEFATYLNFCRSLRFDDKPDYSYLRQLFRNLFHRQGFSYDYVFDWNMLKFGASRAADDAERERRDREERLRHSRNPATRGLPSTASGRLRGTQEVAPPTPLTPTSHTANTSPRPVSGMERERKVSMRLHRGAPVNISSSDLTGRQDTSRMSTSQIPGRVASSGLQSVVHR

**Q.** What does the source list for `CS(=O)(=O)Nc1cccc(-c2csc3cnc(Nc4ccc(N5CCN(CCCCCOc6cccc7c6C(=O)N(C6CCC(=O)NC6=O)C7=O)CC5)cc4)nc23)c1` (stereo not shown) [DB0614, N-(3-(2-((4-(4-(5-((2-(2,6-Dioxopiperidin-3-yl)-1,3-dioxoisoindolin-4-yl)oxy)pentyl)piperazin-1-yl)phenyl)amino)thieno[3,2-d]pyrimidin-7-yl)phenyl)methanesulfonamide]?
**A.** logFC ([1]; experiment wp117): −0.3221; logFC of EIF2AK2 (P19525) ([1]; Experiment wp117): −0.3221

**Q.** `Cc1ccc(NC(=O)c2cccc(C(F)(F)F)c2)cc1N1Cc2cnc(Nc3ccc(N4CCN(Cc5cn(CCCCCOc6cccc7c6C(=O)N(C6CCC(=O)NC6=O)C7=O)nn5)CC4)nc3)nc2N(C)C1=O` (stereo not shown) [DB0646, N-(3-(7-((6-(4-((1-(5-((2-(2,6-Dioxopiperidin-3-yl)-1,3-dioxoisoindolin-4-yl)oxy)pentyl)-1H-1,2,3-triazol-4-yl)methyl)piperazin-1-v)pyridin-3-yl)amino)-1-methyl-2-oxo-1,4-dihydropyrimido[4,5-d]pyrimidin-3(2H)-yl)-4-methylphenyl)-3-(trifluoromethyl)benzamide] was tested. Which “logFC of RIPK2 (O43353-1)” value ([2]; Experiment wp172) did it give?
**A.** Its value is −0.4779.

**Q.** And the logFC ([2]; experiment wp105)?
**A.** The logFC was −0.4215.

**Q.** And the logFC ([2]; experiment wp172)?
**A.** The logFC was −0.4779.

**Q.** And the “logFC of RIPK2 (O43353-1)” value ([2]; experiment wp105)?
**A.** Its value is −0.4215.

**Q.** And the “logFC of LRRK2 (Q5S007)” value ([3]; Experiment wp160, 2 hr)?
**A.** The value was −1.181.

**Q.** And the logFC ([3]; experiment wp160, 2 hr)?
**A.** Its logFC is −1.181.

**Q.** What about the logFC ([3]; experiment wp160, 4 hr) of the same molecule?
**A.** Its logFC is −1.307.

**Q.** And the logFC ([3]; experiment wp160, 1 hr)?
**A.** Its logFC is −1.165.

**Q.** And the logFC ([3]; experiment wp160, 8 hr)?
**A.** Its logFC is −1.747.

**Q.** What about the “logFC of LRRK2 (Q5S007)” value ([3]; experiment wp160, 1 hr) of the same molecule?
**A.** Its value is −1.165.

**Q.** And the “logFC of LRRK2 (Q5S007)” value ([3]; experiment wp160, 4 hr)?
**A.** The value was −1.307.

**Q.** And the “logFC of LRRK2 (Q5S007)” value ([3]; experiment wp160, 8 hr)?
**A.** The value was −1.747.

**Q.** How did the logFC ([1]; experiment wp147, 2 uM) turn out when `CC(C)(C)c1nc(-c2cccc(NS(=O)(=O)c3c(F)cccc3F)c2F)c(-c2ccnc(NCCOCCNC(=O)CCOCCOCCNc3cccc4c3C(=O)N(C3CCC(=O)NC3=O)C4=O)n2)s1` (stereo not shown) [DD.03.106] was run?
**A.** Its logFC is −0.3545.

**Q.** And the logFC ([1]; experiment wp147, 4 uM)?
**A.** The logFC was −0.4042.

**Q.** What about the “logFC of EIF2AK2 (P19525)” value ([1]; Experiment wp147, 2 uM) of the same molecule?
**A.** Its value is −0.3545.

**Q.** And the “logFC of EIF2AK2 (P19525)” value ([1]; Experiment wp147, 4 uM)?
**A.** Its value is −0.4042.

**Q.** Which “logFC of EPHA1 (P21709)” value [4] does the source give for `Cc1ncsc1-c1ccc([C@H](C)NC(=O)[C@@H]2C[C@@H](O)CN2C(=O)[C@@H](NC(=O)CCOCCOCCN2CCN(c3ccc(Nc4ncc(Cl)c(Nc5ccccc5S(=O)(=O)C(C)C)n4)cc3)CC2)C(C)(C)C)cc1` [FMF.06.098.1] here?
**A.** The value was −0.422.

**Q.** What about the “logFC EPHA1” value [4] of the same molecule?
**A.** The value was −0.422.

**Q.** And the “logFC of IRAK4 (Q9NWZ3-1)” value ([5]; Experiment wp108)?
**A.** The value was −0.6505.

**Q.** What about the logFC ([5]; experiment wp108) of the same molecule?
**A.** Its logFC is −0.6505.

**Q.** And the logFC ([5]; experiment wp131)?
**A.** The logFC was −0.7086.

**Q.** What about the “logFC of IRAK4 (Q9NWZ3-1)” value ([5]; experiment wp131) of the same molecule?
**A.** Its value is −0.7086.

**Q.** With `C[C@@H]1C[C@@H](O)c2ncnc(N3CCN(C(=O)[C@H](CNCCCCCCCCCCc4cccc5c4C(=O)N(C4CCC(=O)NC4=O)C5=O)c4ccc(Cl)cc4)CC3)c21` (stereo partly shown) [INY.03.041.01] as the molecule, how does the logFC ([6]; experiment wp118) read?
**A.** Its logFC is −2.777.

**Q.** What about the logFC ([6]; experiment wp118, direction down) of the same molecule?
**A.** Its logFC is −2.777.

**Q.** And the logFC ([6]; experiment wp135, 4 hr)?
**A.** The logFC was −1.739.

**Q.** And the logFC ([6]; experiment wp135, 4 hr, direction down)?
**A.** The logFC was −1.739.

**Q.** Which results are given for `Cc1ccc(C(=O)Nc2ccc(CN3CCN(CCCOCCOCCOCCNC(=O)COc4cccc5c4C(=O)N(C4CCC(=O)NC4=O)C5=O)CC3)c(C(F)(F)F)c2)cc1C#Cc1cnc2cccnn12` (stereo not shown) [SB1.G.187]?
**A.** logFC of RIPK2 (O43353-1) ([2]; Experiment wp114): −0.8828; logFC ([2]; experiment wp105): −0.572; logFC ([2]; experiment wp114): −0.8828; logFC of RIPK2 (O43353-1) ([2]; experiment wp105): −0.572; logFC of EPHA1 (P21709) [4]: −0.3552; logFC EPHA1 [4]: −0.3552

**Q.** Which logFC ([6]; experiment wp105) does the source give for `CC(C)S(=O)(=O)c1ccccc1Nc1nc(Nc2ccc(N3CCN(CCOCCNC(=O)CNc4cccc5c4C(=O)N(C4CCC(=O)NC4=O)C5=O)CC3)cc2)ncc1Cl` (stereo not shown) [SK.3.91] here?
**A.** The logFC was −0.8722.

**Q.** And the logFC ([6]; experiment wp105, direction down)?
**A.** The logFC was −0.8722.

**Q.** What about the logFC ([6]; experiment wp107) of the same molecule?
**A.** Its logFC is −0.4141.

**Q.** And the logFC ([6]; experiment wp107, direction down)?
**A.** Its logFC is −0.4141.

**Q.** And the “logFC CSNK1D” value ([7]; experiment wp133, 4 hr)?
**A.** Its value is −0.4585.

**Q.** What about the “logFC of CSNK1D (P48730-1)” value ([7]; experiment wp133, 4 hr) of the same molecule?
**A.** The value was −0.4585.

**Q.** What about the logFC ([3]; experiment wp160, 1 hr) of the same molecule?
**A.** The logFC was −0.8447.

**Q.** And the “logFC of LRRK2 (Q5S007)” value ([3]; experiment wp160, 1 hr)?
**A.** The value was −0.8447.

**Q.** And the logFC ([8]; experiment wp133, 4 hr)?
**A.** The logFC was −0.4685.

**Q.** And the “logFC MAP3K21 (Q5TCX8)” value ([8]; experiment wp133, 4 hr)?
**A.** Its value is −0.4685.

**Q.** `CC(C)S(=O)(=O)c1ccccc1Nc1nc(Nc2ccc(N3CCN(CCOCCOCCNC(=O)CNc4cccc5c4C(=O)N(C4CCC(=O)NC4=O)C5=O)CC3)cc2)ncc1Cl` (stereo not shown) [TL12.186] was tested. Which “logFC CSNK1D” value ([7]; experiment wp131) did it give?
**A.** The value was −0.3551.

**Q.** What about the “logFC of CSNK1D (P48730-1)” value ([7]; experiment wp131) of the same molecule?
**A.** Its value is −0.3551.

**Q.** And the logFC ([8]; experiment wp131)?
**A.** Its logFC is −0.969.

**Q.** And the “logFC MAP3K21 (Q5TCX8)” value ([8]; experiment wp131)?
**A.** The value was −0.969.

**Q.** And the logFC ([5]; experiment wp131)?
**A.** The logFC was −0.4293.

**Q.** What about the logFC ([5]; experiment wp137) of the same molecule?
**A.** Its logFC is −0.4185.

**Q.** And the “logFC of IRAK4 (Q9NWZ3-1)” value ([5]; experiment wp131)?
**A.** The value was −0.4293.

**Q.** And the “logFC of IRAK4 (Q9NWZ3-1)” value ([5]; experiment wp137)?
**A.** The value was −0.4185.
